# Test system: cutaneous lesions arising from either basal cell cancer, squamous cell cancer or CMBC
# Experiment: Phase 1/2 dose escalation study of SnET2 PDT: lesion response
# Format: in vivo, patients
# Experimental: Two Phase 1/2 studies established the clinical dosimetry. The first study was a dose escalation study that enrolled a total of 22 patients with cutaneous lesions arising from either basal cell cancer, squamous cell cancer or CMBC. A total of 213 lesions were treated using photosensitizer SnET2) doses ranging from 0.1-1.2 mg/kg, light doses of 100, 150 or 200 J/cm^2 and treatment timepoints of 24, 48, or 72 hours post-infusion. Two key measures were utilized in these studies, lesion reaction and lesion response. Lesion reaction was an acute characterization of the treatment effect that was performed out to 1 week post-treatment according to the following scale: • Grade 0=No visual erythema or edema • Grade 1=Faint erythema and/or slight edema • Grade 2=Moderate erythema and edema • Grade 3=Severe discoloration, edema, sloughing or eschar
# Beginning at one month post-treatment and then at 3 and 6 months post-treatment, a lesion response assessment was conducted according to the following scoring system: • Complete Response (complete reduction of the lesion) • Partial Response (more than 50% reduction of the lesion) • Failure (less than 50% reduction of the lesion).
# Therefore, in the analysis that follows, results from all three treatment timepoints have been combined.
# A similar result was observed when individual patient responses were compared. In these studies, individual patients received a single drug dose and each patient then had individual lesions treated at various light doses (100, 150, or 200 J/cm^2) and treatment timepoints (24, 48, 72 hours post-infusion). In Table 3, results for each patient treated at 0.8 mg/kg or higher are provided. In each drug dose case, individual lesions were treated at one of the three light doses and one of the three treatment timepoints, all of which have been combined for each individual patient result in the table.
# [1] = 0.1 mg/kg, 100 J/cm^2, 24/48/72 h combined
# [2] = 0.1 mg/kg, 150 J/cm^2, 24/48/72 h combined
# [3] = 0.1 mg/kg, 200 J/cm^2, 24/48/72 h combined
# [4] = 0.2 mg/kg, 100 J/cm^2, 24/48/72 h combined
# [5] = 0.2 mg/kg, 150 J/cm^2, 24/48/72 h combined
# [6] = 0.2 mg/kg, 200 J/cm^2, 24/48/72 h combined
# [7] = 0.4 mg/kg, 100 J/cm^2, 24/48/72 h combined
# [8] = 0.4 mg/kg, 150 J/cm^2, 24/48/72 h combined
# [9] = 0.4 mg/kg, 200 J/cm^2, 24/48/72 h combined
# [10] = 0.8 mg/kg, 100 J/cm^2, 24/48/72 h combined
# [11] = 0.8 mg/kg, 100 J/cm^2, lesions scored for reaction at Week 1
# [12] = 0.8 mg/kg, 150 J/cm^2, 24/48/72 h combined
# [13] = 0.8 mg/kg, 150 J/cm^2, lesions scored for reaction at Week 1
# [14] = 0.8 mg/kg, 200 J/cm^2, 24/48/72 h combined
# [15] = 0.8 mg/kg, 200 J/cm^2, lesions scored for reaction at Week 1
# [16] = 1.0 mg/kg, 100 J/cm^2, 24/48/72 h combined
# [17] = 1.0 mg/kg, 100 J/cm^2, lesions scored for reaction at Week 1
# [18] = 1.0 mg/kg, 150 J/cm^2, 24/48/72 h combined
# [19] = 1.0 mg/kg, 150 J/cm^2, lesions scored for reaction at Week 1
# [20] = 1.0 mg/kg, 200 J/cm^2, 24/48/72 h combined
# [21] = 1.0 mg/kg, 200 J/cm^2, lesions scored for reaction at Week 1
# [22] = 1.2 mg/kg, 100 J/cm^2, 24/48/72 h combined
# [23] = 1.2 mg/kg, 100 J/cm^2, lesions scored for reaction at Week 1
# [24] = 1.2 mg/kg, 150 J/cm^2, 24/48/72 h combined
# [25] = 1.2 mg/kg, 150 J/cm^2, lesions scored for reaction at Week 1
# [26] = 1.2 mg/kg, 200 J/cm^2, 24/48/72 h combined
# [27] = 1.2 mg/kg, 200 J/cm^2, lesions scored for reaction at Week 1
# [28] = patient RC004, drug dose 0.8 mg/kg, light doses and timepoints combined
# [29] = patient RC005, drug dose 1.2 mg/kg, light doses and timepoints combined
# [30] = patient RC006, drug dose 1.2 mg/kg, light doses and timepoints combined
# [31] = patient RC007, drug dose 1.2 mg/kg, light doses and timepoints combined
# [32] = patient SC001, drug dose 1.2 mg/kg, light doses and timepoints combined
# [33] = patient SC002, drug dose 1 mg/kg, light doses and timepoints combined
# [34] = patient SC003, drug dose 1 mg/kg, light doses and timepoints combined
# [35] = patient SC004, drug dose 1 mg/kg, light doses and timepoints combined
# [36] = patient SC005, drug dose 1.2 mg/kg, light doses and timepoints combined
# [37] = patient WC007, drug dose 0.8 mg/kg, light doses and timepoints combined
# [38] = patient WC008, drug dose 0.8 mg/kg, light doses and timepoints combined
# [39] = patient WC009, drug dose 1.2 mg/kg, light doses and timepoints combined
# [40] = patient WC010, drug dose 1.2 mg/kg, light doses and timepoints combined
substance,measurement,setting,value
tin ethyl etiopurpurin [SnET2],Complete Responders,[1],0
same,Partial Responders,[1],0
same,Response Rate (%),[1],0%
same,Total Responders,[1],0
same,Complete Responders,[2],0
same,Partial Responders,[2],0
same,Response Rate (%),[2],0%
same,Total Responders,[2],0
same,Complete Responders,[3],0
same,Partial Responders,[3],0
same,Response Rate (%),[3],0%
same,Total Responders,[3],0
same,Complete Responders,[4],0
same,Partial Responders,[4],1
same,Response Rate (%),[4],50%
same,Total Responders,[4],1
same,Complete Responders,[5],0
same,Partial Responders,[5],0
same,Response Rate (%),[5],0%
same,Total Responders,[5],0
same,Complete Responders,[6],0
same,Partial Responders,[6],0
same,Response Rate (%),[6],0%
same,Total Responders,[6],0
same,Complete Responders,[7],0
same,Partial Responders,[7],0
same,Response Rate (%),[7],0%
same,Total Responders,[7],0
same,Complete Responders,[8],0
same,Partial Responders,[8],0
same,Response Rate (%),[8],0%
same,Total Responders,[8],0
same,Complete Responders,[9],0
same,Partial Responders,[9],0
same,Response Rate (%),[9],0%
same,Total Responders,[9],0
same,lesions with responses,0.8 mg/kg or higher,95 of 102
same,Complete Responders,[10],9
same,Partial Responders,[10],2
same,Response Rate (%),[10],78%
same,Total Responders,[10],11
same,% Responders,[11],79%
same,Total Responders,[11],11
same,Complete Responders,[12],8
same,Partial Responders,[12],5
same,Response Rate (%),[12],87%
same,Total Responders,[12],13
same,% Responders,[13],87%
same,Total Responders,[13],13
same,Complete Responders,[14],12
same,Partial Responders,[14],1
same,Response Rate (%),[14],87%
same,Total Responders,[14],13
same,% Responders,[15],87%
same,Total Responders,[15],13
same,Complete Responders,[16],3
same,Partial Responders,[16],0
same,Response Rate (%),[16],100%
same,Total Responders,[16],3
same,% Responders,[17],100%
same,Total Responders,[17],3
same,Complete Responders,[18],4
same,Partial Responders,[18],1
same,Response Rate (%),[18],100%
same,Total Responders,[18],5
same,% Responders,[19],100%
same,Total Responders,[19],5
same,Complete Responders,[20],8
same,Partial Responders,[20],0
same,Response Rate (%),[20],100%
same,Total Responders,[20],8
same,% Responders,[21],100%
same,Total Responders,[21],8
same,Complete Responders,[22],5
same,Partial Responders,[22],7
same,Response Rate (%),[22],100%
same,Total Responders,[22],12
same,% Responders,[23],100%
same,Total Responders,[23],6
same,Complete Responders,[24],7
same,Partial Responders,[24],9
same,Response Rate (%),[24],100%
same,Total Responders,[24],16
same,% Responders,[25],100%
same,Total Responders,[25],9
same,Complete Responders,[26],11
same,Partial Responders,[26],3
same,Response Rate (%),[26],100%
same,Total Responders,[26],14
same,% Responders,[27],100%
same,Total Responders,[27],7
same,response rate of individual patients,"all patients at 0.8 mg/kg or higher, with the exception of one patient dosed at 0.8 mg/kg",100%
same,response at the drug dose threshold and greater,at about 0.5 to about 0.8 mg/kg and greater (1.2 mg/kg),good responses were observed
same,threshold dose for lesion response,dose escalation 0.1-1.2 mg/kg,0.8 mg/kg
same,response below the drug dose threshold,doses below about 0.5 to about 0.8 mg/kg,no response was observed
same,Lesions Responded,doses less than 0.8 mg/kg,1 of 111
same,influence of light dose and treatment timepoint,"light doses 100 to 200 J/cm^2, timepoints 24 to 72 hours post administration",did not indicate significant differences
same,variation in response with treatment timepoint,"light given at 24, 48 or 72 hours after administration",minimal variation in response with treatment timepoint
same,% Lesions Responded,[28],74%
same,Lesions Responded,[28],20
same,% Lesions Responded,[29],100%
same,Lesions Responded,[29],6
same,% Lesions Responded,[30],100%
same,Lesions Responded,[30],1
same,% Lesions Responded,[31],100%
same,Lesions Responded,[31],3
same,% Lesions Responded,[32],100%
same,Lesions Responded,[32],4
same,% Lesions Responded,[33],100%
same,Lesions Responded,[33],6
same,% Lesions Responded,[34],100%
same,Lesions Responded,[34],6
same,% Lesions Responded,[35],100%
same,Lesions Responded,[35],4
same,% Lesions Responded,[36],100%
same,Lesions Responded,[36],6
same,% Lesions Responded,[37],100%
same,Lesions Responded,[37],9
same,% Lesions Responded,[38],100%
same,Lesions Responded,[38],8
same,% Lesions Responded,[39],100%
same,Lesions Responded,[39],20
same,% Lesions Responded,[40],100%
same,Lesions Responded,[40],2
